From the supplement of paper PMC11061612

Columns and labels:
Test in all cases: Bliss excess, mean over the matrix (fraction); higher = more synergy
[1] = test system: NCI-H1623 (Lung Adenocarcinoma)
Outline: (§1)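 Cell lines grown in DMEM/F12 or RPMI with 10% FBS were plated in 1536-well plates and held 24 hours at 37°C, 5% CO2 before 72 hours of exposure to two-drug dose matrices, with DMSO typically at 0.2%. CellTiter-Glo 2.0 luminescence gave viability, which was converted to inhibition. Vehicle wells were set to 0 and blank wells to 1. Combination Emax is the second-highest inhibition in the matrix, and Bliss excess is the observed combination effect minus the expected EA + EB − EA·EB, where EA and EB are the single-agent effects.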

[2] = test system: PC-14 (Lung Adenocarcinoma)
Outline: as §1

[3] = test system: NCI-H810 (Non-Small Cell Lung Carcinoma)
Outline: as §1

[4] = test system: AsPC-1 (Pancreatic Carcinoma)
Outline: as §1

[5] = test system: NCI-H1155 (Non-Small Cell Lung Carcinoma)
Outline: as §1

[6] = test system: SK-MM-2 (Plasma Cell Myeloma)
Outline: as §1

[7] = test system: NCI-H1755 (Lung Adenocarcinoma)
Outline: as §1

786-0 (Kidney Carcinoma) = test system: 786-0 (Kidney Carcinoma)
Outline: as §1

[8] = test system: RPMI-8866 (Chronic Myelogenous Leukemia)
Outline: as §1

[9] = test system: KYSE-70 (Esophageal Squamous Cell Carcinoma)
Outline: as §1

[10] = test system: BALL-1 (B-Lymphoblastic Leukemia)
Outline: as §1

[11] = test system: LOUCY (T-Lymphoblastic Leukemia)
Outline: as §1

[12] = test system: Becker (Low Grade Glioma)
Outline: as §1

[13] = test system: RERF-LC-KJ (Lung Adenocarcinoma)
Outline: as §1

[14] = test system: FLO-1 (Esophageal Adenocarcinoma)
Outline: as §1

[15] = test system: HSC-3 (Oral Cavity Carcinoma)
Outline: as §1

HuO-3N1 (Osteosarcoma) = test system: HuO-3N1 (Osteosarcoma)
Outline: as §1

[16] = test system: NCI-H1563 (Lung Adenocarcinoma)
Outline: as §1

[17] = test system: LAMA-84 (Chronic Myelogenous Leukemia)
Outline: as §1

RT4 (Bladder Carcinoma) = test system: RT4 (Bladder Carcinoma)
Outline: as §1

Row | Structure (SMILES) | Bliss excess [1] | Bliss excess [2] | Bliss excess [3] | Bliss excess [4] | Bliss excess [5] | Bliss excess [6] | Bliss excess [7] | Bliss excess (786-0 (Kidney Carcinoma)) | Bliss excess [8] | Bliss excess [9] | Bliss excess [10] | Bliss excess [11] | Bliss excess [12] | Bliss excess [13] | Bliss excess [14] | Bliss excess [15] | Bliss excess (HuO-3N1 (Osteosarcoma)) | Bliss excess [16] | Bliss excess [17] | Bliss excess (RT4 (Bladder Carcinoma))
1 | CN(C)CCCOc1ccc(-c2ccc3ncc4c(c3c2)n(C2CCOCC2)c(=O)n4C)cn1 [AZD0156] + C=CCn1c(=O)c2cnc(Nc3ccc(N4CCN(C)CC4)cc3)nc2n1-c1cccc(C(C)(C)O)n1 [AZD1775] (first compound max 1 µM, partner max 1 µM) | -0.065 | -0.0209 | -0.0519 | -0.0179 | -0.0213 | 0.0058 | -0.0462 | 0.0005 | -0.0175 | -0.0531 | 0.0118 | -0.0123 | -0.0409 | -0.0193 | 0.0285 | -0.0534 | -0.0505 | -0.0549 | -0.037 | -0.0136
2 | CN(C)CCCOc1ccc(-c2ccc3ncc4c(c3c2)n(C2CCOCC2)c(=O)n4C)cn1 [AZD0156] + CCN(CCO)CCCOc1ccc2c(Nc3cc(CC(=O)Nc4cccc(F)c4)[nH]n3)ncnc2c1 [AZD2811] (first compound max 1 µM, 7x7, partner max 1 µM) | -0.0321 | -0.0042 | 0.0302 | -0.0461 | -0.0175 | -0.0131 | -0.0132 | -0.0107 | 0.0518 | 0.0006 | 0.171 | -0.0646 | -0.0293 | -0.004 | -0.0376 | -0.0087 | -0.0225 | -0.006 | -0.021 | -0.0063
3 | CN(C)CCCOc1ccc(-c2ccc3ncc4c(c3c2)n(C2CCOCC2)c(=O)n4C)cn1 [AZD0156] + C[C@@H]1COCCN1C2=NC(=NC(=C2)C3(CC3)[S@](=N)(=O)C)C4=C5C=CNC5=NC=C4 [AZD6738] (first compound max 1 µM, 7x7, partner max 10 µM) | -0.0236 | 0.0043 | -0.0082 | -0.0184 | -0.0289 | -0.0524 | -0.0249 | -0.0177 | -0.0014 | 0.0033 | 0.0274 | 0.0196 | -0.0248 | 0.0452 | 0.0005 | -0.0032 | -0.0046 | -0.0063 | 0.0048 | -0.0408
4 | CN(C)CCCOc1ccc(-c2ccc3ncc4c(c3c2)n(C2CCOCC2)c(=O)n4C)cn1 [AZD0156] + O=C(c1cc(Cc2n[nH]c(=O)c3ccccc23)ccc1F)N1CCN(C(=O)C2CC2)CC1 [Olaparib] (first compound max 3 µM, partner max 3 µM) | 0.0126 | -0.0009 | 0.0541 | 0.005 | 0.103 | -0.161 | -0.0055 | 0.0418 | 0.0607 | -0.0054 | 0.158 | 0.125 | -0.0359 | -0.0459 | 0.0512 | 0.132 | -0.0328 | -0.0158 | 0.167 | -0.0044
5 | C=CCn1c(=O)c2cnc(Nc3ccc(N4CCN(C)CC4)cc3)nc2n1-c1cccc(C(C)(C)O)n1 [AZD1775] + C1CN(CCC1(C(=O)N[C@@H](CCO)C2=CC=C(C=C2)Cl)N)C3=NC=NC4=C3C=CN4 [Capivasertib] (first compound max 3 µM, partner max 3 µM) | -0.0576 | -0.018 | -0.0404 | -0.0654 | 0.0056 | -0.0629 | -0.0691 | -0.0169 | 0.0091 | -0.0193 | 0.0591 | 0.0157 | -0.0716 | -0.0117 | -0.0228 | 0.0552 | -0.0033 | -0.0318 | 0.0017 | -0.0355
6 | C=CCn1c(=O)c2cnc(Nc3ccc(N4CCN(C)CC4)cc3)nc2n1-c1cccc(C(C)(C)O)n1 [AZD1775] + C[C@@H]1COCCN1C2=NC(=NC(=C2)C3(CC3)[S@](=N)(=O)C)C4=C5C=CNC5=NC=C4 [AZD6738] (first compound max 1 µM, partner max 10 µM) | 0.0057 | -0.005 | 0.0223 | -0.0571 | 0.0817 | -0.0211 | -0.0276 | 0.109 | 0.0078 | 0.0329 | 0.0441 | 0.025 | 0.0428 | -0.0151 | -0.0531 | 0.0038 | 0.0162 | -0.0303 | 0.0054 | -0.0068
7 | C=CCn1c(=O)c2cnc(Nc3ccc(N4CCN(C)CC4)cc3)nc2n1-c1cccc(C(C)(C)O)n1 [AZD1775] + O=C(c1cc(Cc2n[nH]c(=O)c3ccccc23)ccc1F)N1CCN(C(=O)C2CC2)CC1 [Olaparib] (first compound max 1 µM, partner max 10 µM) | -0.0233 | -0.0248 | -0.038 | 0.0039 | 0.0355 | -0.0471 | -0.0291 | -0.0097 | -0.0528 | -0.0188 | 0.0054 | 0.0492 | -0.0254 | -0.035 | -0.0673 | 0.0013 | -0.0835 | -0.0288 | -0.0086 | 0.0107
